In patent US12011433B2 (UNIVERSITÁ DEGLI STUDI DI BARI “ALDO MORO”, priority 2016, dated 2024):
Like-named read-outs stand apart in the source and are kept apart here.

Key:
ovine COX-2 = ovine COX-2 (Ovis aries (Sheep), UniProt P79208); assay: colorimetric COX (ovine) inhibitor screening assay kit; type: biochemical; settings: for IC50: ovine COX-2; for inhibition at 50 µM: read-out: COX-2 [% inhibition at 50 μM], ovine COX-2, 50 μM
Procedure: (§1) Enzyme inhibition was determined using a colorimetric COX (ovine) inhibitor screening assay kit (Cayman Chemicals, Ann Arbor, MI, USA) following the manufacturer's instructions. Stock solutions of test compounds were dissolved in a minimum volume of DMSO.

ovine COX-1 = ovine COX-1 (Ovis aries (Sheep), UniProt P05979); assay: as above; type: biochemical; settings: for IC50: ovine COX-1; for inhibition at 50 µM: read-out: COX-1 [% inhibition at 50 μM], ovine COX-1, 50 μM
Sequence of ovine COX-1 (P05979 25-600): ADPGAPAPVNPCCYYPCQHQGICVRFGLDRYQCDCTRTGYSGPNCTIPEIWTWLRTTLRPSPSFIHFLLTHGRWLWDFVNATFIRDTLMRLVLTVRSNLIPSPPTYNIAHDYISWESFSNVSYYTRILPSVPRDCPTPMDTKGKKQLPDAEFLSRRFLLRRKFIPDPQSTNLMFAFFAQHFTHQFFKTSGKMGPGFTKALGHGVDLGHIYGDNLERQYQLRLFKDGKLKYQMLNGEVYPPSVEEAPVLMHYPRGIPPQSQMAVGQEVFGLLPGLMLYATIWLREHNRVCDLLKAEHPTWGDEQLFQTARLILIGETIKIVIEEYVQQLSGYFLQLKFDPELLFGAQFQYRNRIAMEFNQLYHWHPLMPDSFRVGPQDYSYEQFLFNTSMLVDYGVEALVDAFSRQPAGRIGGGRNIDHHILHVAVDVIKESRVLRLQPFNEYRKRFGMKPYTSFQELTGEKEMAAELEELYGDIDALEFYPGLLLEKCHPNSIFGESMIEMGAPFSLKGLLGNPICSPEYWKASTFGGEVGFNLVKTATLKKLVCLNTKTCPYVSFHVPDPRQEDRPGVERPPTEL
Procedure: as §1

Caco-2 cells = assay: Caco-2 monolayer efflux assay, Apparent Permeability (Papp), with or without GLUT-1 inhibitor phloretin; type: in vitro ADME, Human; settings: for reduction of the basolateral to apical flux (Papp B→A) in the presence of phloretin: phloretin vs alone; for Papp B → A, Phloretin: in the presence of 100 mM Phloretin
Procedure: (§2) In a monolayer efflux assay, the Apparent Permeability (Papp) in both basolateral to apical [Papp(B→A)] and apical to basolateral [Papp(A→B)] directions was determined for each compound (FIG. 2). Human colonic adenocarcinoma cell line (Caco-2) presents a facilitated transport system at the apical and basolateral surface. Caco-2 cells express high levels of GLUT-1 that are localized to the basolateral membrane and transport glucose to the serosal side.
(§3) The Papp(B→A) flux of each compound alone or in the presence of phloretin, a GLUT-1 inhibitor, has been determined. Since GLUT-1 is express in the basolateral compartment a high B→A flux means that the transport is GLUT-1 mediated because B→A flux represents the active transport.
(§4) A→B flux, which represents the passive transport, has also been determined for each compound (Table 2).

COX-2 = COX-2 (Homo sapiens, UniProt P35354); assay: colorimetric COX Inhibitor screening Assay (peroxidase component, oxidized TMPD at 590 nm); type: biochemical; settings: for inhibition at 50 µM: the highest concentration tested; for IC50: human cyclooxygenase
Sequence of COX-2 (P35354 18-604 limits assumed): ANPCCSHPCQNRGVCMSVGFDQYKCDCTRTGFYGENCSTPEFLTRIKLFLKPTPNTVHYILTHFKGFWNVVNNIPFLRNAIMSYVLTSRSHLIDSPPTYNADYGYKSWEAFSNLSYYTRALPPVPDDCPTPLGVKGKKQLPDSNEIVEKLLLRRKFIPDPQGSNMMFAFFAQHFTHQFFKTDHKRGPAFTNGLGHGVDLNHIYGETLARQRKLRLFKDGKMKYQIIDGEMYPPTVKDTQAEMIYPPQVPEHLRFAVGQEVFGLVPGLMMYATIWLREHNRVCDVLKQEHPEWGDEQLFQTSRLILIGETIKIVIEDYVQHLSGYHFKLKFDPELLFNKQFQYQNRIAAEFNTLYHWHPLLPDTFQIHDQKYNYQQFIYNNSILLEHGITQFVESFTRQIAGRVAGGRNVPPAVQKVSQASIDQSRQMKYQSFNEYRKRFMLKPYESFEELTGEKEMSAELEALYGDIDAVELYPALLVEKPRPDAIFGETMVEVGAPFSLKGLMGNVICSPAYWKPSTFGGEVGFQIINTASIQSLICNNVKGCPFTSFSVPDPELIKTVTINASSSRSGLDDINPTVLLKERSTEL
Procedure: Human cyclooxygenase inhibitory activity was determined by a colorimetric COX Inhibitor screening Assay which measures the peroxidase component of the cyclooxygenases, monitoring the appearance of oxidized N,N,N′,N′-tetramethyl-p-phenylenediamine (TMPD) at 590 nm.

GLUT-1 = assay: Caco-2 monolayer efflux assay, Apparent Permeability (Papp), with or without GLUT-1 inhibitor phloretin; type: in vitro ADME, Human; settings: human
Procedure: as §2, §3, §4

[1] = as above; type: in vitro ADME, Human; settings: human, compound alone
Procedure: as §2, §3, §4

Sequence of ovine COX-2 (P79208 17-603): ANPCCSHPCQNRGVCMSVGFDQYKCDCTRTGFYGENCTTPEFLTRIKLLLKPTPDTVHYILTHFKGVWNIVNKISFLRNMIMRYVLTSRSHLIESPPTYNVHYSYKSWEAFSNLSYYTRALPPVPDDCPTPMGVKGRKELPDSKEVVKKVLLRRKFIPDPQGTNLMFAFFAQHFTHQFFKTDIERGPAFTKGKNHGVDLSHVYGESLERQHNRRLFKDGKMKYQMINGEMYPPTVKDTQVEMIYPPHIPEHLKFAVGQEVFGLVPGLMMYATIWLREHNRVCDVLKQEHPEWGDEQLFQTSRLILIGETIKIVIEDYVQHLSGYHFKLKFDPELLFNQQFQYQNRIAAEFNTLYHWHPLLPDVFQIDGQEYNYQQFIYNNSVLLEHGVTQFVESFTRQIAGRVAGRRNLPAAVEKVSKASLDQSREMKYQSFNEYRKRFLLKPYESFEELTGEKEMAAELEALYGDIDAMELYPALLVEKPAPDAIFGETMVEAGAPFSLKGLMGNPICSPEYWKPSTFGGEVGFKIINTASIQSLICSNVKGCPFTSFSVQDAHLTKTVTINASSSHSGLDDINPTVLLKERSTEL

Compound	IC50 (ovine COX-2)	inhibition at 50 µM (ovine COX-2)	IC50 (ovine COX-1)	inhibition at 50 µM (ovine COX-1)	further results
COc1ccc(-c2noc(CC(=O)NCCNC(=O)Cc3onc(-c4ccc(OC)cc4)c3-c3ccc(OC)cc3)c2-c2ccc(OC)cc2)cc1 [drawing 61]	120 nM	45%	13 nM	75%	–
COc1ccc(-c2noc(CC(=O)NCCCCC(=O)OC[C@H]3OC(O)[C@H](O)[C@@H](O)[C@H]3O)c2-c2ccc(OC)cc2)cc1 (stereo partly drawn) [GALMOF5, 6-O-(5-{2-[3,4-bis(4-methoxyphenyl)isoxazol-5-yl]acetamido}pentanoyl)-D-galactopyranose]	–	–	–	–	reduction of the basolateral to apical flux (Papp B→A) in the presence of phloretin (Caco-2 cells): 37%
COc1ccc(-c2noc(CC(=O)NCCCCNC(=O)Cc3onc(-c4ccc(OC)cc4)c3-c3ccc(OC)cc3)c2-c2ccc(OC)cc2)cc1 [Compound 11, N-(4-(2-(3,4-Bis(4-methoxyphenyl)isoxazol-5-yl)acetamido)butyl)-3,4-bis(4-methoxyphenyl)isoxazole-5-carboxyamide]	–	–	–	–	melting point: 163 to 166 °C
COc1ccc(-c2noc(CC(=O)NCC(=O)O)c2-c2ccc(OC)cc2)cc1	–	17%	–	23%	–
COc1ccc(-c2noc(CC(=O)Nc3ccc(NC(=O)Cc4onc(-c5ccc(OC)cc5)c4-c4ccc(OC)cc4)cc3)c2-c2ccc(OC)cc2)cc1 [Compound 14]	–	–	–	–	melting point: 178 to 182 °C
CCCCC/C=C\C/C=C\C/C=C\C/C=C\CCCC(=O)NCCCCNC(=O)Cc1onc(-c2ccc(OC)cc2)c1-c1ccc(OC)cc1	800 nM	61%	16000 nM	57%	–
CCCCCCCCC(CCCNC(=O)Cc1onc(-c2ccc(OC)cc2)c1-c1ccc(OC)cc1)NC(=O)Cc1onc(-c2ccc(OC)cc2)c1-c1ccc(OC)cc1 (stereo not drawn) [Compound 13, N-(4-(2-(3,4-Bis(4-methoxyphenyl)isoxazol-5-yl)acetamido)dodecyl)-3,4-bis(4-methoxyphenyl)isoxazole-5-carboxyamide]	–	–	–	–	melting point: 134 to 138 °C
COc1ccc(-c2noc(CC(=O)NCCCCCCCCCCC(=O)OCC3OC(O)C(O)C(O)C3O)c2-c2ccc(OC)cc2)cc1 [GALMOF11, [(2S,3R,4S,6R)-3,4,5,6-tetrahydroxytetrahydro-2H-pyran-2-yl-]mhetyl 11-{2-[3,4-bis(4-methoxyphenyl)isoxazol-5-yl-]acetamido}undecanoate]	–	–	–	–	inhibition at 50 µM (COX-2): 64%; IC50 (COX-2): 270 nM; Papp B→A (Caco-2 cells; compound alone): 77.2 ×10⁻⁶ cm/s; Papp B → A, Phloretin (Caco-2 cells): 62.2 ×10⁻⁶ cm/s; reduction of the basolateral to apical flux (Papp B→A) in the presence of phloretin (Caco-2 cells): 20%; Papp A→B (GLUT-1; compound alone, read-out: Papp A → B): 29.2 ×10⁻⁶ cm/s; Papp B→A (GLUT-1; compound alone, read-out: Papp B → A): 77.2 ×10⁻⁶ cm/s; Papp A→B (GLUT-1; with phloretin (GLUT-1 inhibitor), in Phloretin, read-out: Papp A → B, Phloretin): 29.2 ×10⁻⁶ cm/s; Papp B→A (GLUT-1; with phloretin (GLUT-1 inhibitor), in Phloretin, read-out: Papp B → A, Phloretin): 62.2 ×10⁻⁶ cm/s
COc1ccc(-c2noc(CC(=O)Nc3ccc(NC(=O)Cc4onc(-c5ccc(OC)cc5)c4-c4ccc(OC)cc4)cc3)c2-c2ccc(OC)cc2)cc1 [drawing 65]	> 50000 nM	–	150 nM	85%	–
COc1ccc(-c2noc(CC(=O)NCc3ccc(CNC(=O)Cc4onc(-c5ccc(OC)cc5)c4-c4ccc(OC)cc4)cc3)c2-c2ccc(OC)cc2)cc1	> 50000 nM	–	> 50000 nM	–	–
COc1ccc(-c2noc(CC(=O)OCC3OC(O)C(O)C(O)C3O)c2-c2ccc(OC)cc2)cc1 (stereo not drawn) [drawing 44]	700 nM	87%	100 nM	100%	–
COc1ccc(-c2noc(CC(=O)NCCCCNC(=O)Cc3onc(-c4ccc(OC)cc4)c3-c3ccc(OC)cc3)c2-c2ccc(OC)cc2)cc1 [drawing 64]	> 50000 nM	–	5500 nM	74%	–
CCCCC/C=C\C/C=C\C/C=C\C/C=C\CCCC(=O)Nc1ccc(NC(=O)Cc2onc(-c3ccc(OC)cc3)c2-c2ccc(OC)cc2)cc1	> 50000 nM	40%	49 nM	66%	–
COc1ccc(-c2noc(CC(=O)Nc3ccc(-c4ccc(NC(=O)Cc5onc(-c6ccc(OC)cc6)c5-c5ccc(OC)cc5)cc4)cc3)c2-c2ccc(OC)cc2)cc1 [Compound 16, N,N′-(Biphenyl-4,4′-di-yl)bis(2-(3,4-bis(4-methoxyphenyl)isoxazol-5-yl)acetamide)]	–	–	–	–	melting point: 240 to 243 °C
COc1ccc(-c2noc(CC(=O)NCCNC(=O)Cc3onc(-c4ccc(OC)cc4)c3-c3ccc(OC)cc3)c2-c2ccc(OC)cc2)cc1 [Compound 10, N,N′-(Ethane-1,2-di-yl)-bis-(2-[3,4-bis (4-methoxyphenyl)isoxazol-5-yl]acetamide)]	–	–	–	–	melting point: 145 to 148 °C
COc1ccc(-c2noc(CC(=O)NCCCCC(=O)OC[C@H]3OC(O)[C@H](O)[C@@H](O)[C@H]3O)c2-c2ccc(OC)cc2)cc1 (mixture of isomers) [GALMOF5, 6-O-(5-{2-[3,4-bis(4-methoxyphenyl)isoxazol-5-yl]acetamido}pentanoyl)-D-galactopyranose]	–	–	–	–	inhibition at 50 µM (COX-2): 24%; IC50 (COX-2): > 50000 nM; Papp A→B [1]: 32.1 ×10⁻⁶ cm/s; Papp B→A [1]: 74.9 ×10⁻⁶ cm/s; Papp B → A, Phloretin (Caco-2 cells): 47.2 ×10⁻⁶ cm/s; Papp A→B (GLUT-1; with phloretin 100 mM (GLUT-1 inhibitor), in the presence of 100 mM Phloretin, read-out: Papp A → B, Phloretin): 32.1 ×10⁻⁶ cm/s; Papp B→A (GLUT-1; with phloretin 100 mM (GLUT-1 inhibitor), in the presence of 100 mM Phloretin, read-out: Papp B → A, Phloretin): 47.2 ×10⁻⁶ cm/s
COc1ccc(-c2noc(CC(=O)O)c2-c2ccc(OC)cc2)cc1 [drawing 42, reference compound]	> 50000 nM	38%	–	100%	–
COc1ccc(-c2noc(CC(=O)NCCCCCCNC(=O)Cc3onc(-c4ccc(OC)cc4)c3-c3ccc(OC)cc3)c2-c2ccc(OC)cc2)cc1	> 50000 nM	22%	9000 nM	50%	–
COc1ccc(-c2noc(CC(=O)Nc3ccc(-c4ccc(NC(=O)Cc5onc(-c6ccc(OC)cc6)c5-c5ccc(OC)cc5)cc4)cc3)c2-c2ccc(OC)cc2)cc1 [drawing 66]	> 50000 nM	–	80 nM	73%	–
COC(=O)CNC(=O)Cc1onc(-c2ccc(OC)cc2)c1-c1ccc(OC)cc1	4400 nM	80%	70 nM	95%	–
CCC(CCCNC(=O)Cc1onc(-c2ccc(OC)cc2)c1-c1ccc(OC)cc1)NC(=O)Cc1onc(-c2ccc(OC)cc2)c1-c1ccc(OC)cc1 (stereo not drawn) [Compound 12, N-(4-(2-(3,4-Bis(4-methoxyphenyl)isoxazol-5-yl)acetamido)hexyl)-3,4-bis(4-methoxyphenyl)isoxazole-5-carboxyamide]	–	–	–	–	melting point: 159 to 161 °C
